The test has as its system PCSK9 secretion in HepG2 cells. Kind of test: Secreted PCSK9 ELISA, HepG2 media. It counts as cell-based, human. As to conditions: HepG2, 24 hours; chloroquine 50 μmol/L, Mdivi-1 50 μmol/L, MG132 0.3 μmol/L. On the technique in general: In an ELISA, binding on a coated surface is turned into a signal by an enzyme label.

Experimental: Pitavastatin and T0901317 were synthesized and provided by Kowa Company, Ltd. (Tokyo, Japan), and treated at a dose of 1 μM in all experiments. […] Mdivi-1 in DMSO vehicle was added at a concentration of 50 μM in all experiments. Mdivi-1 in DMSO vehicle was added to cell culture media in a 50 mL tube, vortexed hard for several minutes and then incubated at 37° C. prior to adding to cells to ensure the compound was fully solubilized.
HepG2 cells were obtained from ATCC (Manassas, Va.), and cultured in EMEM with L-glutamine (ATCC) medium, 1% pen/strep, with and without 10% FBS (Thermo Fisher Scientific, Waltham, Mass.) in 12-well plates (Corning, Durham, N.C.). HepG2 cells were plated at a density of 60-70% prior to treatment to avoid clumping. […] Cell viability was assessed by Trypan Blue exclusion using live/dead cell counting on a Countess™ II LT automated cell counter (Thermo Fisher Scientific).

On to `CCN(CC)CCCC(C)Nc1ccnc2cc(Cl)ccc12` (stereo not shown) [chloroquine], for which the “PCSK9 secretion by ELISA (in words)” value is “increased”.

The values are drawn from US10960020B2, “Modulation of PCSK9 and LDLR through DRP1 inhibition” (THE BRIGHAM AND WOMEN'S HOSPITAL, INC., priority 2016, dated 2021).
